Source: patent US9975876B2, “2-pyridyloxy-3-ester-4-ether orexin receptor antagonists” (MERCK SHARP & DOHME CORP., priority 2013, dated 2018)

Tests used:
hOX1R = hOX1R (Homo sapiens, UniProt O43613); assay: FLIPR Ca2+ flux assay, orexin-1 receptor antagonism; format: cell-based; conditions: CHO cells; agonist 70 pM Ala-6,12 human orexin-A
human orexin-2 receptor = human orexin-2 receptor (Homo sapiens (Human), UniProt O43614); assay: FLIPR Ca2+ flux assay, orexin-2 receptor antagonism; format: cell-based; conditions: CHO cells; agonist 70 pM Ala-6,12 human orexin-A; read-out: hOX2R FLIPR IC50
human orexin-2 receptor, sequence (O43614 whole entry): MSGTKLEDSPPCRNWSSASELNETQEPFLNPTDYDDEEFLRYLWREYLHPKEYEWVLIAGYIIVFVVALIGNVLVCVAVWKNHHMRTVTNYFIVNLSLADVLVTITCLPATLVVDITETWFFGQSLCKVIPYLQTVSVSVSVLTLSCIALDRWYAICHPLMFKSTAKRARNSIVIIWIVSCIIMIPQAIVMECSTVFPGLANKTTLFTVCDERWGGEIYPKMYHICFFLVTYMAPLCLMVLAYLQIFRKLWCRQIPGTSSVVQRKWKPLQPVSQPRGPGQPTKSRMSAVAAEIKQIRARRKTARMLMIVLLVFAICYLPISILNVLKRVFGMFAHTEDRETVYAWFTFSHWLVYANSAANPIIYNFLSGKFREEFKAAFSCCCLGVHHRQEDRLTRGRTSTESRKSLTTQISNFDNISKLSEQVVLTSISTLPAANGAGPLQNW
Method: In a typical experiment the OX1 and OX2 receptor antagonistic activity of the compounds of the present invention was determined in accordance with the following experimental method. For intracellular calcium measurements, Chinese hamster ovary (CHO) cells expressing the rat orexin-1 receptor or the human orexin-2 receptor, are grown in Iscove's modified DMEM containing 2 mM L-glutamine, […], 1% hypoxanthine-thymidine supplement, 100 U/ml penicillin, 100 μg/ml streptomycin and 10% heat-inactivated fetal calf serum (FCS). The cells are seeded at 20,000 cells/well into Becton-Dickinson black 384-well clear bottom sterile plates coated with poly-D-lysine. All reagents were from GIBCO-Invitrogen Corp. The seeded plates are incubated overnight at 37° C. and 5% CO2. Ala-6,12 human orexin-A as the agonist is prepared as a 1 mM stock solution in 1% bovine serum albumin (BSA) and diluted in assay buffer (HBSS containing 20 mM HEPES, 0.1% BSA and 2.5 mM probenecid, pH7.4) for use in the assay at a final concentration of 70 pM. Test compounds are prepared as 10 mM stock solution in DMSO, then diluted in 384-well plates, first in DMSO, then assay buffer. On the day of the assay, cells are washed 3 times with 100 μl assay buffer and then incubated for 60 min (37° C., 5% CO2) in 60 μl assay buffer containing 1 μM Fluo-4AM ester, 0.02% pluronic acid, and 1% BSA. The dye loading solution is then aspirated and cells are washed 3 times with 100 μl assay buffer. 30 μl of that same buffer is left in each well. Within the Fluorescent Imaging Plate Reader (FLIPR, Molecular Devices), test compounds are added to the plate in a volume of 25 μl, incubated for 5 min and finally 25 μl of agonist is added. Fluorescence is measured for each well at 1 second intervals for 5 minutes and the height of each fluorescence peak is compared to the height of the fluorescence peak induced by 70 pM Ala-6,12 orexin-A with buffer in place of antagonist. […] The intrinsic orexin receptor antagonist activity of a compound which may be used in the present invention may be determined by these assays.

SMILES | IC50 (hOX1R) [nM] | IC50 (human orexin-2 receptor) [nM]
COC(=O)c1c(OC)ccnc1O[C@@H]1CC[C@@H](C)N(C(=O)c2cccc(F)c2-c2nc(C)no2)C1 [Example 18, methyl 2-{[(3R,6R)-1-{[3-fluoro-2-(3-methyl-1,2,4-oxadiazol-5-yl)phenyl]carbonyl}-6-methylpiperidin-3-yl]oxy}-4-methoxypyridine-3-carboxylate] | 932 | 39.5
COC(=O)c1c(OC)ccnc1O[C@@H]1CC[C@@H](C)N(C(=O)c2cccc(C)c2-n2nccn2)C1 [Example 14, methyl 4-methoxy-2-{[(3R,6R)-6-methyl-1-{[3-methyl-2-(2H-1,2,3-triazol-2-yl)phenyl]carbonyl}piperidin-3-yl]oxy}pyridine-3-carboxylate] | 777 | 37.9
COC(=O)c1c(OC)ccnc1O[C@@H]1CC[C@@H](C)N(C(=O)c2c(F)cccc2-n2nccn2)C1 [Example 6, methyl 2-{[(3R,6R)-1-{[2-fluoro-6-(2H-1,2,3-triazol-2-yl)phenyl]carbonyl}-6-methylpiperidin-3-yl]oxy}-4-methoxypyridine-3-carboxylate] | 2310 | 82.9
COC(=O)c1c(OC)ccnc1O[C@@H]1CC[C@@H](C)N(C(=O)c2ccc(F)cc2-c2noc(C)n2)C1 [Example 10, methyl 2-{[(3R,6R)-1-{[4-fluoro-2-(5-methyl-1,2,4-oxadiazol-3-yl)phenyl]carbonyl}-6-methylpiperidin-3-yl]oxy}-4-methoxypyridine-3-carboxylate] | 10000 | 58.7
COC(=O)c1c(OC)ccnc1O[C@@H]1CC[C@@H](C)N(C(=O)c2cccc(F)c2-c2noc(C)n2)C1 [Example 11, methyl 2-{[(3R,6R)-1-{[3-fluoro-2-(5-methyl-1,2,4-oxadiazol-3-yl)phenyl]carbonyl}-6-methylpiperidin-3-yl]oxy}-4-methoxypyridine-3-carboxylate] | 2270 | 31.8
CCOC(=O)c1c(OC)ccnc1O[C@@H]1CC[C@@H](C)N(C(=O)c2ccccc2-n2nccn2)C1 [Example 25, ethyl 4-methoxy-2-{[(3R,6R)-6-methyl-1-{[2-(2H-1,2,3-triazol-2-yl)phenyl]carbonyl}piperidin-3-yl]oxy}pyridine-3-carboxylate] | 814 | 19.3
COC(=O)c1c(OC)ccnc1O[C@@H]1CC[C@@H](C)N(C(=O)c2cccc(F)c2-n2nccn2)C1 [Example 2, Methyl 2-{[(3R,6R)-1-{[3-fluoro-2-(2H-1,2,3-triazol-2-yl)phenyl]carbonyl}-6-methylpiperidin-3-yl]oxy}-4-methoxypyridine-3-carboxylate] | 2900 | 37
COC(=O)c1c(OC)ccnc1O[C@@H]1CC[C@@H](C)N(C(=O)c2c(F)cccc2-c2nc(C)no2)C1 [Example 12, methyl 2-{[(3R,6R)-1-{[2-fluoro-6-(3-methyl-1,2,4-oxadiazol-5-yl)phenyl]carbonyl}-6-methylpiperidin-3-yl]oxy}-4-methoxypyridine-3-carboxylate] | 4470 | –
COC(=O)c1c(OC)ccnc1O[C@@H]1CC[C@@H](C)N(C(=O)c2ccccc2-c2ncccn2)C1 [Example 19] | 1870 | 114
COC(=O)c1c(OC)ccnc1O[C@@H]1CC[C@@H](C)N(C(=O)c2ccc(F)cc2-c2nc(C)no2)C1 [Example 5, methyl 2-{[(3R,6R)-1-{[4-fluoro-2-(3-methyl-1,2,4-oxadiazol-5-yl)phenyl]carbonyl}-6-methylpiperidin-3-yl]oxy}-4-methoxypyridine-3-carboxylate] | 3100 | 52
COC(=O)c1c(OC)ccnc1O[C@@H]1CC[C@@H](C)N(C(=O)c2cc(F)ccc2-c2nc(C)no2)C1 [Example 13, methyl 2-{[(3R,6R)-1-{[5-fluoro-2-(3-methyl-1,2,4-oxadiazol-5-yl)phenyl]carbonyl}-6-methylpiperidin-3-yl]oxy}-4-methoxypyridine-3-carboxylate] | 1160 | 34.6
COC(=O)c1c(OC)ccnc1O[C@@H]1CC[C@@H](C)N(C(=O)c2ccccc2-n2ncnn2)C1 [Example 23, Methyl 4-methoxy-2-{[(3R,6R)-6-methyl-1-{[2-(2H-tetrazol-2-yl)phenyl]carbonyl}piperidin-3-yl]oxy}pyridine-3-carboxylate] | 2140 | 27.7
COC(=O)c1c(OC)ccnc1O[C@@H]1CC[C@@H](C)N(C(=O)c2ccc(F)cc2-n2nccn2)C1 [Example 4, methyl 2-{[(3R,6R)-1-{[4-fluoro-2-(2H-1,2,3-triazol-2-yl)phenyl]carbonyl}-6-methylpiperidin-3-yl]oxy}-4-methoxypyridine-3-carboxylate] | 3200 | 764
COC(=O)c1c(OC)ccnc1O[C@@H]1CC[C@@H](C)N(C(=O)c2ccc(OC)cc2-n2nccn2)C1 [Example 15, methyl 4-methoxy-2-{[(3R,6R)-1-{[4-methoxy-2-(2H-1,2,3-triazol-2-yl)phenyl]carbonyl}-6-methylpiperidin-3-yl]oxy}pyridine-3-carboxylate] | 10000 | 51
COC(=O)c1c(OC)cccc1O[C@@H]1CC[C@@H](C)N(C(=O)c2ccccc2-c2ncccn2)C1 [Example 35, methyl 2-methoxy-6-({(3R,6R)-6-methyl-1-[(2-pyrimidin-2-ylphenyl)carbonyl]piperidin-3-yl}oxy)benzoate] | > 10000 | 35
COC(=O)c1c(OC)ccnc1O[C@@H]1CC[C@@H](C)N(C(=O)c2ccc(Cl)cc2-n2nccn2)C1 [Example 3] | 1420 | 33.6
CCOC(=O)c1c(OC)ccnc1O[C@@H]1CC[C@@H](C)N(C(=O)c2cccc(F)c2-n2nccn2)C1 [Example 26] | 2790 | 39.6
CCOc1ccnc(O[C@@H]2CC[C@@H](C)N(C(=O)c3ccccc3-n3nccn3)C2)c1C(=O)OC [Example 27, Methyl 4-ethoxy-2-{[(3R,6R)-6-methyl-1-{[2-(2H-1,2,3-triazol-2-yl)phenyl]carbonyl}piperidin-3-yl]oxy}pyridine-3-carboxylate] | 7000 | 167
COC(=O)c1c(OC)cccc1O[C@@H]1CC[C@@H](C)N(C(=O)c2ccccc2-n2ncnn2)C1 [Example 33, methyl 2-methoxy-6-{[(3R,6R)-6-methyl-1-{[2-(2H-tetrazol-2-yl)phenyl]carbonyl}piperidin-3-yl]oxy}bcnzoate] | > 10000 | 202
CCOC(=O)c1c(OCC)ccnc1O[C@@H]1CC[C@@H](C)N(C(=O)c2ccccc2-n2ncnn2)C1 [Example 28, Ethyl 4-ethoxy-2-{[(3R,6R)-6-methyl-1-{[2-(2H-tetrazol-2-yl)phenyl]carbonyl}piperidin-3-yl]oxy}pyridine-3-carboxylate] | 4130 | 18
COC(=O)c1c(OC)cccc1O[C@@H]1CC[C@@H](C)N(C(=O)c2ccsc2-n2nccn2)C1 [Example 32, methyl 2-methoxy-6-{[(3R,6R)-6-methyl-1-{[2-(2H-1,2,3-triazol-2-yl)thiophen-3-yl]carbonyl}piperidin-3-yl]oxy}benzoate] | > 10000 | 61
COC(=O)c1c(OC)cccc1O[C@@H]1CC[C@@H](C)N(C(=O)c2ccccc2-n2nccn2)C1 [Example 31, Methyl 2-methoxy-6-{[(3R,6R)-6-methyl-1-{[2-(2H-1,2,3-triazol-2-yl)phenyl]carbonyl}piperidin-3-yl]oxy}benzoate] | > 10000 | 25
COC(=O)c1c(OC)ccnc1O[C@@H]1CC[C@@H](C)N(C(=O)c2ccc(F)cc2-c2ncccn2)C1 [Example 21, methyl 2-({(3R,6R)-1-[(4-fluoro-2-pyrimidin-2-ylphenyl)carbonyl]-6-methylpiperidin-3-yl}oxy)-4-methoxypyridine-3-carboxylate] | 1460 | 71.2
COC(=O)c1c(OC)cccc1O[C@@H]1CC[C@@H](C)N(C(=O)c2ccsc2-c2ncccn2)C1 [Example 34, methyl 2-methoxy-6-({(3R,6R)-6-methyl-1-[(2-pyrimidin-2-ylthiophen-3-yl)carbonyl]piperidin-3-yl}oxy)benzoate] | > 10000 | 42
COC(=O)c1c(OC)ccnc1O[C@@H]1CC[C@@H](C)N(C(=O)c2ccc(OC)nc2-n2nccn2)C1 [Example 17, methyl 4-methoxy-2-{[(3R,6R)-1-{[6-methoxy-2-(2H-1,2,3-triazol-2-yl)pyridin-3-yl]carbonyl}-6-methylpiperidin-3-yl]oxy}pyridine-3-carboxylate] | 10000 | 52
